From patent US20170211073A1, “ANTISENSE ANTINEOPLASTIC AGENT” (priority 2014, published 2017)

How the values were obtained:
YB-1 [1] = assay: YB-1 knockdown siRNA vs AmNA-AON, protein level (Western blotting); assay type: cell-based; conditions: AsPC-1, MIA PaCa-2, Suit-2, 20 nM, 48 hours
Procedure: (§1) YB-1-siRNA or YB-1 #10AmNA was introduced (final concentration, 20 nM) into cells of the pancreatic cancer cell strains (AsPC-1, MIA PaCa-2, and Suit-2). After 48 hours, RNAs and proteins were extracted, and the YB-1 expression was evaluated by real-time RT-PCR and Western blotting at the mRNA level (A) and protein level (B), respectively. Both the knockdown efficiencies obtained with siRNA and #10 AmNA-AON were high at the mRNA level, and any clear difference was not observed between them. […] The graphs show mean±SD (n=3, *P<0.05).

[2] = test system: gemcitabine-resistant pancreatic cancer SUIT2-GR cells; assay: Repetitive administration into blood, SUIT2-GR subcutaneous tumor growth; assay type: in vivo, nude mice; conditions: 10 mg/kg BW caudal vein once a week over three weeks, days 14 and 21
Procedure: The tumor diameters were measured over time.

[3] = test system: ovarian cancer cell strain SKOV-3; assay: Anticancer agent sensitivity enhancement, SKOV-3; assay type: cell-based; conditions: antisense 5 nM, 5-FU, gemcitabine
Procedure: The #10 AmNA YB-1 antisense (5 nM) was introduced into cells of the pancreatic cancer cell strain MIA PaCa-2 (FIG. 19A) and ovarian cancer cell strain SKOV-3 (FIG. 19B) using the reagent Lipofectamine RNAiMax, and cell-killing effects of the anticancer agent observed in the presence and absence of the antisense were compared. […] The anticancer agent concentrations that provided equivalent cell-killing effects are shown in blue color (5-FU) or red color (gemcitabine).

[4] = test system: pancreatic cancer cell strain SUIT2; assay: Apoptosis induction in SUIT2 by FACS and Western blotting (PARPp85, caspase-3); assay type: cell-based; conditions: 20 nM, in vitro
Procedure: In the same manner as that of Example 3, 20 nM of #10AmNA YB-1 antisense was introduced into the cells of the pancreatic cancer cell strain SUIT2 in vitro.

YB-1 [5] = assay: YB-1 expression in SKOV3 by real-time RT-PCR; assay type: cell-based; conditions: Lipofectamine RNAiMax
Excerpt: The #10 AmNA YB-1 antisense was introduced into cells of the ovarian cancer cell strain SKOV3 using the reagent Lipofectamine RNAiMax, and expression of YB-1 was examined by real-time RT-PCR.

YB-1 [6] = assay: YB-1 knockdown siRNA vs AmNA-AON, mRNA level (real-time RT-PCR); assay type: cell-based; conditions: AsPC-1, MIA PaCa-2, Suit-2; 20 nM; 48 hours
Procedure: as §1

CD31 = assay: Microvessel density by CD31 immunostaining in SUIT2-GR subcutaneous tumor; assay type: in vivo, nude mice; conditions: administration into the blood
Excerpt: The neovascularity marker CD31 in the SUIT2-GR subcutaneous tumor of the treatment experiment (A) was immunostained. As a result, it was observed that the microvessel density was decreased by the administration of #10 AmNA YB-1 antisense into the blood, and thus inhibition of neovascularization was induced (FIG. 14C).

With “TCTcctgcaccCTGg (TCTCCTGCACCCTGG; chemistry not fully specified) [#10AmNA]” the “knockdown efficiency at the protein level” value (YB-1 [1]) was “clearly higher”, the subcutaneous tumor-suppressing effect [2] was “significant subcutaneous tumor-suppressing effect” and the “cell-killing effects of the anticancer agent in presence of the antisense” value [3] was “Enhancement of the cell-killing effect”. For the same substance, the “induction of apoptosis (FACS; PARPp85, caspase-3)” value [4] was “Induction of apoptosis was observed”, the “suppression of YB-1 expression” value (YB-1 [5]) was “Concentration-dependent suppression” and the “knockdown efficiency at the mRNA level” value (YB-1 [6]) was “high”. For the same substance, the “microvessel density (CD31)” value (CD31) was “decreased”.
